Where a name gives a salt, the structure may show the parent alone.
Legend:
sputum volume in mice = assay: Effect on sputum volume in mice measured by phenol red; type: in vivo, ICR mice; conditions: Mucosolvan 16mg/kg i.g. q.d. 3 days; n=10
Method: • (1) The present medication to be tested, 6.25 g crude drugs/g, provided by Shijiazhuang Yiling Pharmaceutical Co. Ltd., lot number: 060501. • (2) GLKCNC as the traditional Chinese medicine control, 1g crude drugs/pill (0.3g of powder per pill), produced by Shanxi Guilong pharmaceutical Co., Ltd., Approval number: SFDA Approval No. Z-11; Lot number of the product: 060112; valid until December 2007. • (3) Mucosolvan as a western medicine control, 30mg/tablet, the product of Boehringer Ingelheim Int. Ltd. German, lot number: 206362, distribution lot number:030307. […]
Sixty healthy mice were randomly assigned into the following six groups: (1) the blank control group administered with distilled water (25 ml/kg); (2) the Mucosolvan group (16 mg/kg); (3) the GLKCNC group (2 g crude drugs/kg); (4) the low dosage group of the present medication (L-dosage group, 3 g crude drugs/kg); (5) the medium dosage group of the present medication (M-dosage group, 6 g crude drugs/kg); (6)the high dosage group of the present medication (H-dosage group, 12 g crude drugs/kg). […] The optical density (OD) value of the flush liquid was measured by a UV-visible spectrophotometer UV-120-02 at a wavelength of 546nm, in which the level of phenol red in the flush liquid (µg/ml) was calculated on the basis of phenol red standard curve. […]

sputum volume in rats = assay: Effect on sputum volume in rats measured by capillary; type: in vivo
Method: • (1) The present medication to be tested, 6.25 g of crude drug/g, provided by Shijiazhuang Yiling Pharmaceutical Co. Ltd., lot number: 060501. • (2) GLKCNC as the traditional Chinese medicine control, 1g crude drugs/pill (0.3g of powder per pill), produced by Shanxi Guilong pharmaceutical Co., Ltd., Approval number: SFDA Approval No. Z-11; Lot number of the product: 060112; valid until December 2007. • (3) Mucosolvan as a western medicine control, 30mg/tablet, the product of Boehringer Ingelheim Int. Ltd. German, lot number: 206362, distribution lot number:030307.
Sixty SPF Wistar […] evenly composed of males and females with the mean body weight of 174.38 ± 7.64 g, provided by Institute of Laboratory Animal Science, Chinese Acadamy of Medical Sciences, and License number: SCXK (Jing) 2000-0006.
The sixty healthy rats were randomly assigned into the following six groups: (1) the blank control group administered with distilled water (10 ml/kg); (2) the Mucosolvan group (11 mg /kg); (3) the GLKCNC group (1.5 g crude drug/kg); (4) the low dosage group of the present medication (L-dosage group, 2 g crude drug/kg); (5) the medium dosage group of the present medication (M-dosage group, 4 g crude drug/kg); (6)the high dosage group of the present medication (H-dosage group, 8 g crude drug/kg). […] The skin of neck was incised and the trachea was separated, on which an orifice was pricked with a syringe needle at the median site of the lower edge of the thyroid cartilage between the two cartilages. A piece of glass capillary with the length of 5 cm and the inner diameter of 0.8 mm was inserted through the orifice in a way such that the glass capillary was just contact the inner wall of the trachea. When the glass capillary was filled up with sputum, it would be replaced immediately with another one. The sputum volume in capillaries was determined in 1 hour prior to the administration. One hour later, the animals in the experimental group were administered duodenally with the medications at a volume of 10 ml/kg, while the animals in the control group were administered with equal amount of physiological saline. […] Comparisons among the groups were performed by t-test with the average amount of the secretion in 1 hour prior to administration serving as a normal value.

[1] = system: aqueous ammonia-induced cough in mice; assay: Cough-checking effect on the aqueous ammonia-induced cough in mice; type: in vivo, Kunming mice; conditions: CHT 12mg/kg i.g. q.d. 3 days; n=10
Method: • (1) The present medication to be tested, 6.25g crude drugs/g (i.e.,1g of the medication was made from 6.25g crude drugs), provided by Shijiazhuang Yiling Pharmaceutical Co. Ltd., lot number: 060501, and diluted to required concentrations with distilled water in the experiment. • (2) Cloperastine Hydrochloride Tablet (CHT) as the positive control of a western medicine, 10mg/tablet, produced by Beijing Shuguang Pharmaceutical Co., Ltd. lot number: 060619, and valid until June, 2008. • (3) Gui Long Ke Chuan Ning Capsule (GLKCNC) as the positive control of a traditional Chinese medicine, 1g crude drugs/pill (0.3g of powder per pill), produced by Shanxi Guilong pharmaceutical Co., Ltd., Approval number: SFDA Approval No. Z-11; Lot number of the product: 060112; valid until December 2007.
Sixty Kunming mice of Grade II evenly composed of males and females with the mean body weight of 19.90 ± 0.66 g, provided by Institute of Laboratory Animal Science, Chinese Academy of Medical Sciences, License number: SCXK (Jing) 2000-0006. […]

[2] = system: citric acid-induced cough; assay: Cough-checking effect on citric acid-induced cough in guinea pigs; type: in vivo; conditions: CHT 7mg/kg i.g. q.d. 3 days; n=10
Method: • (1) The present medication to be tested, 6.25g crude drugs/g, provided by Shijiazhuang Yiling Pharmaceutical Co. Ltd., lot number: 060501. • (2) GLKCNC as the traditional Chinese medicine control, 1g crude drugs/pill (0.3g of powder per pill), produced by Shanxi Guilong pharmaceutical Co., Ltd., Approval number: SFDA Approval No. Z-11; Lot number of the product: 060112; valid until December 2007. • (3) CHT as the Western medicine control, 10 mg/tablet, produced by Beijing Shuguang Pharmaceutical Co., Ltd., production date: 200606; lot number: 060619; valid until June, 2008.
Sixty purebred guinea pigs of Grade I evenly composed of males and females with the mean body weight of 206.65 ± 6.92g, provided by Beijing Keyu Animal Breeding Center, License number: SCXK (Jing) 2002-0005.
The guinea pigs were individually placed into the sealed 4L bell-shape container with prior to the experiment and a solution of 17.5% citric acid was sprayed for 1 minute at a pressure of 400 mmHg through the glass sparger. The guinea pigs were screened according to the cough number recorded within 5 minutes Guinea pigs with a cough number of less than 10 were rejected and the qualified ones were chosen for the experiment. […]

[3] = system: panting in the guinea pig induced by histamine plus acetylcholine; assay: Dyspnea-relieving effect on panting in the guinea pig induced by histamine plus acetylcholine; type: in vivo, guinea pigs; conditions: Aminophylline 0.05 g/kg i.g. q.d. 3 days, n=10
Source text: Sixty white purebred guinea pigs of Grade I evenly composed of males and females with the mean body weight of 198.55 ± 6.30g, provided by Beijing Keyu Animal Breeding Center, License number: SCXK (Jing) 2002-0005.
The healthy guinea pigs evenly composed of males and females were screened preciously. The guinea pigs were individually placed into the 4 L bell-shape glass container and sprayed with a mixed liquid of 2 % acetylcholine chloride and 0.1 % histamine phosphate in equal volumes at a pressure of 400 mmHg for 20s. […] The guinea pig showing the incubation period for asthmatic convulsion above 120s would not be chosen. […] The animals in the test groups were intragastrically administered q.d. at a volume of 5 ml/kg for consecutive three days, while the animals in the control group were administered with equal amount of physiological saline. An asthma-inducing experiment was performed in 30 min post the final administration. The guinea pigs were individually placed into the 4 L bell-shape glass container and sprayed with a mixed liquid of 2 % acetylcholine chloride plus 0.1 % histamine phosphate in equal volumes at a pressure of 400 mmHg for 20s. […] The incubation period lasting for more than 6 min was counted as 360 s. The experimental results were compared among the groups by t-test.

[4] = Mucosolvan 11mg/kg duodenal, n=10
[5] = Mucosolvan 11mg/kg duodenal, vs 1 h prior to administration

Cl.Nc1c(Br)cc(Br)cc1CNC1CCC(O)CC1 (centres unmarked) [Mucosolvan]
Amount of excreted phenol red (sputum volume in mice): 1.538 ± 0.486 µg/mL | Excretion value, 1 h post administration (sputum volume in rats; [4]): 8.76±2.51 cm | Excretion value, 2 h post administration (sputum volume in rats; [4]): 8.50±1.79 cm | Excretion value, Change rate, 1 h post administration (sputum volume in rats; [5]): 238.05±77.76% | Excretion value, Change rate, 2 h post administration (sputum volume in rats; [5]): 67.48±11.94% | Excretion value, Difference, 1 h post administration (sputum volume in rats; [5]): 6.01±1.56 cm | Excretion value, Difference, 2 h post administration (sputum volume in rats; [5]): 5.75±1.64 cm | Excretion value, 1 h prior to administration (sputum volume in rats; Mucosolvan group 11mg/kg, baseline before dosing, n=10): 2.75±1.08 cm

Clc1ccc(C(OCCN2CCCCC2)c2ccccc2)cc1 (centres unmarked) [CHT, Cloperastine Hydrochloride]
Cough number [1]: 28.40±9.75 times /3 min | Incubation period [1]: 118.30 ± 27.23 s | Cough number [2]: 6.10±3.57 times/5min | Incubation period [2]: 196.80 ± 66.22 s

Cn1c(=O)c2[nH]cnc2n(C)c1=O [Aminophylline]
Falling-down time [3]: 358.5 ± 3.4 s | Incubation period ([3]; more than 6 min counted as 360 s): 228.0 ± 43.3 s
